Results taken from patent publication US9586907B2, “Isothiocyanate compounds, pharmaceutical compositions, and uses thereof” (priority 2006, dated 2017).
Converted amounts (≈) assume the structure as drawn. Read-outs that look alike come from different tables or passages of the source.

What was measured:
[1] = tested on: Klebsiella pneumonii BK12261; experiment: MIC, Klebsiella pneumonii BK12261
[2] = tested on: Serattia marcescens BK12426; experiment: MIC, Serattia marcescens BK12426
[3] = tested on: Staphylococcus epidermidis BK12799; experiment: MIC, Staphylococcus epidermidis BK12799
[4] = tested on: Enterobacter cloacii BK12315; experiment: MIC, Enterobacter cloacii BK12315
[5] = tested on: Shigella sp., BK 12441; experiment: MIC, Shigella sp., BK 12441; type: cell-based; details: Gram −, 24 hours of incubation
[6] = tested on: M. intracellularie; experiment: MIC, M. intracellularie; type: cell-based; details: M. intracellularie
[7] = tested on: Shigella sp., BK 12440; experiment: MIC, Shigella sp., BK 12440; type: cell-based; details: Gram −, 24 hours of incubation
[8] = tested on: MRSA (Staphylococcus aureus) BK12060; experiment: MIC, MRSA BK12060
[9] = tested on: Enterococcus sp., BK11940; experiment: MIC, Enterococcus sp., BK11940
[10] = tested on: Enterobacter cloacii BK12313; experiment: MIC, Enterobacter cloacii BK12313
[11] = tested on: M. fortuitum; experiment: MIC, M. fortuitum; type: cell-based; details: M. fortuitum
[12] = tested on: Acinetobacter sp., BK12786; experiment: MIC, Acinetobacter sp., BK12786
[13] = tested on: Enterococcus sp., BK11936; experiment: MIC, Enterococcus sp., BK11936
[14] = tested on: Acinetobacter sp., BK12787; experiment: MIC, Acinetobacter sp., BK12787
[15] = tested on: M. tuberculosis W4; experiment: MIC, M. tuberculosis W4; type: cell-based
Protocol: (§1) Next, several of the bifunctional ITC compounds were tested for their ability to inhibit the growth of some clinical isolates of Mycobacteria, the results of which are summarized in Table 3 below.

[16] = tested on: Serattia marcescens BK12421; experiment: MIC, Serattia marcescens BK12421
[17] = tested on: Streptococcus sp., BK12233; experiment: MIC, Streptococcus sp., BK12233
[18] = tested on: Streptococcus sp., BK12235; experiment: MIC, Streptococcus sp., BK12235
[19] = tested on: M. tuberculosis P; experiment: MIC, M. tuberculosis P; type: cell-based
Protocol: as §1

[20] = tested on: Pseudomonas aeruginosa BK12348; experiment: MIC, Pseudomonas aeruginosa BK12348
[21] = tested on: Escherichia coli BK12336; experiment: MIC, Escherichia coli BK12336
[22] = tested on: MRSA (Staphylococcus aureus) BK12064; experiment: MIC, MRSA BK12064
[23] = tested on: Klebsiella pneumonii BK12260; experiment: MIC, Klebsiella pneumonii BK12260
[24] = tested on: Bacillus subtilis BK11590; experiment: MIC, Bacillus subtilis BK11590; type: cell-based; details: Gram +, 24 hours of incubation
[25] = tested on: M. tuberculosis H37Rv; experiment: MIC, M. tuberculosis H37Rv; type: cell-based
Protocol: as §1

[26] = tested on: M. tuberculosis AB; experiment: MIC, M. tuberculosis AB; type: cell-based
Protocol: as §1

[27] = tested on: clinical isolates of bacteria and fungus (including yeasts); experiment: General antimicrobial activity, semi-quantitative score on collection of clinical isolates; type: cell-based; details: for General antimicrobial activity: semi-quantitative score from number of sensitive bacterial strains at 100 and 200 μM, deduced from number of sensitive bacterial species and average MIC; for General antimicrobial activity: key: −: indicating no activity; +++++: indicating highest activity
[28] = tested on: M. tuberculosis 210; experiment: MIC, M. tuberculosis 210; type: cell-based
Protocol: as §1

[29] = tested on: M. tuberculosis W; experiment: MIC, M. tuberculosis W; type: cell-based
Protocol: as §1

[30] = tested on: M. scrofulaceum; experiment: MIC, M. scrofulaceum; type: cell-based; details: M. scrofulaceum
[31] = tested on: M. bovis BCG; experiment: microbe, parasite or virus in culture; type: cell-based
[32] = tested on: Bacillus cereus 4342; experiment: MIC, Bacillus cereus 4342
[33] = tested on: Pseudomonas aeruginosa BK12347; experiment: MIC, Pseudomonas aeruginosa BK12347
[34] = tested on: Escherichia coli K12; experiment: MIC, Escherichia coli K12
[35] = tested on: M. cansassi; experiment: MIC, M. cansassi; type: cell-based; details: M. cansassi
[36] = tested on: Staphylococcus epidermidis BK12798; experiment: MIC, Staphylococcus epidermidis BK12798
[37] = Staphylococcus aureus, MRSA, 24 h
[38] = Mycobacterium tuberculosis, read-out: MIC
[39] = Klebsiella pneumonii BK12261, Gram −, 24 hours of incubation
[40] = Serattia marcescens BK12426, Gram −, 24 hours of incubation
[41] = Staphylococcus epidermidis BK12799, Gram +, 24 hours of incubation
[42] = Enterobacter cloacii BK12315, Gram −, 24 hours of incubation
[43] = MRSA BK12060, Gram +, 24 hours of incubation
[44] = Enterococcus sp., BK11940, Gram +, 24 hours of incubation
[45] = Enterobacter cloacii BK12313, Gram −, 24 hours of incubation
[46] = Acinetobacter sp., BK12786, Gram −, 24 hours of incubation
[47] = Enterococcus sp., BK11936, Gram +, 24 hours of incubation
[48] = Acinetobacter sp., BK12787, Gram −, 24 hours of incubation
[49] = Serattia marcescens BK12421, Gram −, 24 hours of incubation
[50] = Streptococcus sp., BK12233, Gram +, grown on Tryptic Soy agar medium, 24 hours
[51] = Streptococcus sp., BK12235, Gram +, grown on Tryptic Soy agar medium, 24 hours
[52] = Pseudomonas aeruginosa BK12348, Gram −, 24 hours of incubation
[53] = Escherichia coli BK12336, Gram −, 24 hours of incubation
[54] = MRSA BK12064, Gram +, 24 hours of incubation
[55] = Klebsiella pneumonii BK12260, Gram −, 24 hours of incubation
[56] = Bacillus cereus 4342, Gram +, 24 hours of incubation
[57] = Pseudomonas aeruginosa BK12347, Gram −, 24 hours of incubation
[58] = Escherichia coli K12, Gram −, 24 hours of incubation
[59] = Staphylococcus epidermidis BK12798, Gram +, 24 hours of incubation

In the case of S=C=NCc1ccc(CN=C=S)cc1 [Compound 37], the MIC ([1]; Klebsiella, BK12261, 24 h) is reported as > 64 mg/L, the MIC ([2]; 24 h) is reported as 64 mg/L (≈ 290 µM) and the MIC ([3]; Staphylococcus epidermidis, BK12799, 24 h) is reported as 0.5 mg/L (≈ 2.27 µM). For the same compound, the MIC ([4]; Enterobacter, BK12315, 24 h) was > 64 mg/L, the MIC ([5]; read-out: MIC) was 16 mg/L (≈ 72.6 µM) and the MIC ([6]; read-out: MIC) was 32 mg/L (≈ 145 µM). It also gave an MIC ([7]; read-out: MIC) of 16 mg/L (≈ 72.6 µM), an MIC [8, 37] of 8 mg/L (≈ 36.3 µM) and an MIC ([9]; Enterococcus, 24 h) of 16 mg/L (≈ 72.6 µM). The MIC ([10]; Enterobacter, BK12313, 24 h) was > 64 mg/L, the MIC ([11]; Mycolicibacterium fortuitum, read-out: MIC) was 32 mg/L (≈ 145 µM) and the MIC ([12]; Acinetobacter, 24 h) was > 64 mg/L. The MIC ([13]; Enterococcus, 24 h) was 16 mg/L (≈ 72.6 µM), the MIC ([14]; Acinetobacter, 24 h) was > 64 mg/L and the MIC [15, 38] was 2 mg/L (≈ 9.08 µM). The MIC ([16]; 24 h) was 64 mg/L (≈ 290 µM), the MIC ([17]; Streptococcus, 24 h) was < 0.5 mg/L and the MIC ([18]; Streptococcus, 24 h) was < 0.5 mg/L. For the same compound, the MIC [19, 38] was 2 mg/L (≈ 9.08 µM), the MIC ([20]; Pseudomonas aeruginosa, BK12348, 24 h) was > 64 mg/L and the MIC ([21]; Escherichia coli, BK12336, 24 h) was 8 to 16 mg/L (≈ 36.3 to 72.6 µM). For the same compound, the MIC [22, 37] was 4 mg/L (≈ 18.2 µM), the MIC ([23]; Klebsiella, BK12260, 24 h) was > 64 mg/L and the MIC ([24]; read-out: MIC) was 4 mg/L (≈ 18.2 µM). It also gave an MIC [25, 38] of 2 mg/L (≈ 9.08 µM), an MIC [26, 38] of 2 mg/L (≈ 9.08 µM) and an MIC ([27]; read-out: MIC values towards the microorganisms) of 1 to 4 mg/L (≈ 4.54 to 18.2 µM). The General antimicrobial activity [27] was “+++++”, the MIC [28, 38] was 2 mg/L (≈ 9.08 µM) and the MIC [29, 38] was 1 mg/L (≈ 4.54 µM). The MIC ([30]; Mycobacterium scrofulaceum, read-out: MIC) was 16 mg/L (≈ 72.6 µM), the MIC ([31]; Mycobacterium tuberculosis variant bovis BCG, BCG) was 2 mg/L (≈ 9.08 µM) and the MIC ([32]; Bacillus cereus, 4342, 24 h) was 2 mg/L (≈ 9.08 µM). For the same compound, the MIC ([33]; Pseudomonas aeruginosa, BK12347, 24 h) was > 64 mg/L, the MIC ([34]; Escherichia coli, K12, 24 h) was 16 mg/L (≈ 72.6 µM) and the MIC ([35]; read-out: MIC) was 4 mg/L (≈ 18.2 µM). It also gave an MIC ([36]; Staphylococcus epidermidis, BK12798, 24 h) of 0.5 mg/L (≈ 2.27 µM).
In the case of S=C=NCCCCCCCN=C=S [Compound 41, S═C═N—(CH2)7—N═C═S], the MIC [1, 39] is reported as >64 mg/L, the MIC [2, 40] is reported as >64 mg/L and the MIC [3, 41] is reported as 1 mg/L (≈ 4.67 µM). The MIC [4, 42] was >64 mg/L, the MIC [5] was 64 mg/L (≈ 299 µM) and the MIC [6] was 32 mg/L (≈ 149 µM). It also gave an MIC [7] of 64 mg/L (≈ 299 µM), an MIC [8, 43] of 4 mg/L (≈ 18.7 µM) and an MIC [9, 44] of 8 mg/L (≈ 37.3 µM). The MIC [10, 45] was >64 mg/L, the MIC [11] was 32 mg/L (≈ 149 µM) and the MIC [12, 46] was 32 mg/L (≈ 149 µM). It also gave an MIC [13, 47] of 8 mg/L (≈ 37.3 µM), an MIC [14, 48] of 32 mg/L (≈ 149 µM) and an MIC [15] of 2 mg/L (≈ 9.33 µM). The MIC [16, 49] was >64 mg/L, the MIC [17, 50] was 1 to 2 mg/L and the MIC [18, 51] was 1 to 2 mg/L. The MIC [19] was 4 mg/L (≈ 18.7 µM), the MIC [20, 52] was 64 mg/L (≈ 299 µM) and the MIC [21, 53] was >64 mg/L. The MIC [22, 54] was 4 mg/L (≈ 18.7 µM), the MIC [23, 55] was >64 mg/L and the MIC [24] was 2 mg/L (≈ 9.33 µM). The MIC [25] was 2 mg/L (≈ 9.33 µM), the MIC [26] was 2 mg/L (≈ 9.33 µM) and the General antimicrobial activity [27] was “+++++”. The MIC [28] was 4 mg/L (≈ 18.7 µM), the MIC [29] was 2 mg/L (≈ 9.33 µM) and the MIC [30] was 32 mg/L (≈ 149 µM). The MIC [31] was 2 mg/L (≈ 9.33 µM), the MIC [32, 56] was 2 mg/L (≈ 9.33 µM) and the MIC [33, 57] was 64 mg/L (≈ 299 µM). For the same compound, the MIC [34, 58] was >64 mg/L, the MIC [35] was 8 mg/L (≈ 37.3 µM) and the MIC [36, 59] was 4 mg/L (≈ 18.7 µM).
For S=C=NCCCCCCCCN=C=S [Compound 42, S═C═N—(CH2)8—N═C═S], the MIC [1, 39] was >64 mg/L, the MIC [2, 40] was 64 mg/L (≈ 280 µM) and the MIC [3, 41] was 2 mg/L (≈ 8.76 µM). The MIC [4, 42] was 64 mg/L (≈ 280 µM), the MIC [5] was >64 mg/L and the MIC [6] was 32 mg/L (≈ 140 µM). For the same compound, the MIC [7] was >64 mg/L, the MIC [8, 43] was 2 to 4 mg/L and the MIC [9, 44] was 8 mg/L (≈ 35 µM). The MIC [10, 45] was 64 mg/L (≈ 280 µM), the MIC [11] was 32 mg/L (≈ 140 µM) and the MIC [12, 46] was >64 mg/L. The MIC [13, 47] was 8 mg/L (≈ 35 µM), the MIC [14, 48] was >64 mg/L and the MIC [15] was 4 mg/L (≈ 17.5 µM). The MIC [16, 49] was 64 mg/L (≈ 280 µM), the MIC [17, 50] was 1 to 2 mg/L and the MIC [18, 51] was 2 mg/L (≈ 8.76 µM). For the same compound, the MIC [19] was 4 mg/L (≈ 17.5 µM), the MIC [20, 52] was >64 mg/L and the MIC [21, 53] was >64 mg/L. The MIC [22, 54] was 4 mg/L (≈ 17.5 µM), the MIC [23, 55] was >64 mg/L and the MIC [24] was 2 mg/L (≈ 8.76 µM). For the same compound, the MIC [25] was 4 mg/L (≈ 17.5 µM), the MIC [26] was 4 mg/L (≈ 17.5 µM) and the General antimicrobial activity [27] was “+++++”. The MIC [28] was 4 mg/L (≈ 17.5 µM), the MIC [29] was 4 mg/L (≈ 17.5 µM) and the MIC [30] was 32 mg/L (≈ 140 µM). For the same compound, the MIC [31] was 4 mg/L (≈ 17.5 µM), the MIC [32, 56] was 2 mg/L (≈ 8.76 µM) and the MIC [33, 57] was >64 mg/L. For the same compound, the MIC [34, 58] was >64 mg/L, the MIC [35] was 4 mg/L (≈ 17.5 µM) and the MIC [36, 59] was 2 mg/L (≈ 8.76 µM).
